Test results: US8440643B2, “Inhibitors of beta-lactamase” (MethylGene Inc., priority 2006, dated 2013)

Tested on: Ps. aeruginosa, CL 5701
Assay: Imipenem MIC against Ps. aeruginosa CL 5701
Assay type: cell-based
Conditions: Pseudomonas aeruginosa, CL5701, imipenem alone
Excerpt: The assay determines the concentration of a β-lactamase inhibitor required to reduce the MIC of a β-lactam antibiotic by one-half, one-quarter, one-eighth, one-sixteenth and one-thirty-second against strains of bacteria normally resistant to the antibiotic in question. This is accomplished by titrating the inhibitor (BLI=beta-lactamase inhibitor) in a serial dilution across a microtiter plate while at the same time titrating the antibiotic (AB) in a serial dilution down the microtiter plate and then inoculating the plate with the bacterial strain in question and allowing the bacteria to grow up overnight. Each well in this microplate checkerboard contains a different combination of concentrations of the inhibitor and the antibiotic allowing a full determination of any synergy between the two.
• 1. All wells in rows B-H of MIC 2000 microtiter plates are filled with 100 μL of MHBII+1% DMSO (dimethyl sulfoxide). • 2. All wells in row A of MIC 2000 microtiter plates are filled with 100 μL of 2×MHBII+2% DMSO. • 3. […] Plates are left at 37° C. for about 20 hours and scored for growth by eye. […]
Plates are scored for growth in each well. End points (MICs) where there is no growth in each row are determined and the concentrations of AB and the test BLI at each of these growth negative wells are then used to determine levels of synergy. […]

**Q.** How did the MIC turn out when `C[C@@H](O)[C@H]1C(=O)N2C(C(=O)O)=C(SCCN=CN)C[C@H]12` [Imipenem] was run?
**A.** Its MIC is 20 µg/mL.
